Reference: patent US6967095B2, “Human secretory type phospholipase A2” (Shionogi & Co., Ltd., priority 1998, dated 2005)

Tests used:
[1] = molecular target: T1, human IIA type secretory PLA2 (Homo sapiens, UniProt P14555); assay: Inhibition of secretory PLA2 activity, release of 14C-oleic acid from 14C-POPC; assay type: biochemical; details: purified human IIA type (10 ng); 1 mM POPC, 3 mM deoxycholic acid, 2 mM CaCl2, pH 8.0, 40° C., 60 min; FIG. 4
T1 sequence (P14555 21-144): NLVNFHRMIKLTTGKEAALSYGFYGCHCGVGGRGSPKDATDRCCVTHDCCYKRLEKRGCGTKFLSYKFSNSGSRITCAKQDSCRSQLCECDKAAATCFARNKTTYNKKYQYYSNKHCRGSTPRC
Procedure: (§1) Inhibitory activity against this novel type of human secretory type PLA2 was determined with Indoxam that is a 1-oxamoylindolidine derivative. It has already been reported that Indoxam inhibits the enzymatic activities of IIA type and IB type secretory type PLA2 (Yokota et al., Biochim. Biophys. Acta (1999) 1438, 213-222). The PLA2 activities were determined by the measurement of the quantity of released ^14C-oleic acid from ^14C-labeled 1-palmitoyl-2-oleoyl-phosphatidylcholine (POPC), according to the Draheim et al.'s method (J. Med. Chem., (1996) 39, 5159-5175). In the solution composed of 50 mM Tris-HCl (pH 8.0), 200 mM NaCl, 2 mM CaCl2, and 1 mg/ml bovine serum albumin, the substrates composed of 1 mM POPC (the mixture of about 100,000 cpm ^-C-POPC and unlabeled POPC) and 3 mM deoxycholic acid were incubated with each secretory PLA2 in the presence of various concentrations of Indoxam at 40° C. for 60 min. Then, the quantity of released ^-C-oleic acid was measured. Purified materials were used in the case with human IB type (2 ng), IIA type (10 ng) and X type (4 ng). […]
(§2) The quantity of released ^14C-oleic acid from ^14C-POPC by each human secretory type PLA2 in the absence of Indoxam was regarded as 100% and the quantity of released ^14C-oleic acid in the presence of each concentration of Indoxam was shown as %.

[2] = molecular target: T2, human PLA2 of this invention (IID type) (Homo sapiens, UniProt Q9UNK4); assay: as above; assay type: biochemical; details: IID type from culture supernatant of CHO cells; 1 mM POPC, 3 mM deoxycholic acid, 2 mM CaCl2, pH 8.0, 40° C., 60 min; FIG. 4
T2 construct: made in house
T2 sequence (Q9UNK4 21-145): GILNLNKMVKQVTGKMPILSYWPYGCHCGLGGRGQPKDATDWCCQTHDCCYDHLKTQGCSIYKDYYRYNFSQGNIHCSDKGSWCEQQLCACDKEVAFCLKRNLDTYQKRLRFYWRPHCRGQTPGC
Procedure: as §1, §2

[3] = molecular target: T3, IIA type secretory type PLA2 (Homo sapiens, UniProt P14555); details: already reported, Yokota et al., Biochim. Biophys. Acta (1999) 1438, 213-222; cited from earlier work
T3 sequence (P14555 21-144): T1 sequence (P14555 21-144)

[4] = molecular target: IB type secretory type PLA2 (Homo sapiens, UniProt P04054); details: already reported, Yokota et al., Biochim. Biophys. Acta (1999) 1438, 213-222; cited from earlier work
Chain of IB type secretory type PLA2 (P04054 23-148): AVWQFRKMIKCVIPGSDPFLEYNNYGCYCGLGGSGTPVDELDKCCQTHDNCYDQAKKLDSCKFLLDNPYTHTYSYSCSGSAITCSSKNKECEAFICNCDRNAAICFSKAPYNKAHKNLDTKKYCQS

CCc1c(C(=O)C(N)=O)c2c(OCC(=O)O)cccn2c1Cc1ccccc1-c1ccccc1 [Indoxam]
inhibition of enzymatic activity (released 14C-oleic acid as % of that without Indoxam) [1]: strongly inhibits | inhibition of enzymatic activity (released 14C-oleic acid as % of that without Indoxam) [2]: strongly inhibits | inhibition of enzymatic activity of IIA type secretory type PLA2 [3]: inhibits | inhibition of enzymatic activity of IB type secretory type PLA2 [4]: inhibits
